Measurements as given in US11529323B2 (priority 2017, dated 2022).

Assays:
[1] = Jones et al. 2010; cited from earlier work
[2] = tested on: C-26 colon adenocarcinoma cachexia model; experiment: Combined androgen and AR-42 study (Study 3), C-26 model; assay type: in vivo, mouse; details: Study 3
Experimental: These studies were performed as previously described (Tseng Y C, et al. J Natl Cancer Inst. 2015 107(12):djv274) with modifications. Tumors were established in the right flank by subcutaneous injection of C-26 cells (0.5×10^6 cells in 0.1 mL). […] TFM-4AS-1 (a potent experimental SARM), dihydrotestosterone (DHT) and vehicles were administered by subcutaneous injection.
Six days after cell injection, animals with palpable tumors were treated once daily for 13 days with vehicles for AR-42 and TFM-4AS-1/DHT (n=9), AR-42 (10 mg/kg; TFM-4AS-1/DHT vehicle; n=10), TFM-4AS-1 (10 mg/kg; AR-42 vehicle; n=9), DHT (3 mg/kg; AR-42 vehicle; n=10), the combination of AR-42 and TFM-4AS-1 (10 mg/kg each; n=9), or the combination of AR-42 (10 mg/kg) and DHT (3 mg/kg)(n=10). Grip strength was measured and tissues collected as in the previous studies.
Forelimb grip strength was measured using Bio-GS3 Grip Strength Test Meter (Forceleader DBA Bioseb, Pinellas Park, Fla.). Each mouse was held by the base of its tail and lowered over the apparatus until its forepaws grasped the metal pull bar. The mouse was then gently pulled horizontally in a straight line away from the grip strength meter until the mouse released the bar. The force applied to the bar at the moment of release was recorded as the peak force. Five measurements were taken from each mouse, the average of which was designated as the mouse's grip strength.

## C[C@](O)(COc1ccc(Cl)c(F)c1)C(=O)Nc1ccc(C#N)c(C(F)(F)F)c1 [S-23]
[1]
  effect on orchiectomy- and glucocorticoid-mediated wasting: reversed orchiectomy- and glucocorticoid-mediated wasting

## CN1C(=O)C=C[C@]2(C)[C@H]3CC[C@]4(C)[C@@H](C(=O)Nc5ccccc5C(F)(F)F)CC[C@H]4[C@@H]3CC[C@@H]12 [TFM-4AS-1]
[2]; TFM-4AS-1 10 mg/kg monotherapy
  effect on body weight: did not spare body weight
[2]; monotherapy (TFM-4AS-1 10 mg/kg; AR-42 10 mg/kg)
  effect on mass of gastrocnemius or quadriceps: did not spare

## C[C@]12CCC(=O)C[C@@H]1CC[C@@H]1[C@@H]2CC[C@]2(C)[C@@H](O)CC[C@@H]12 [DHT, dihydrotestosterone]
[2]; DHT alone 3 mg/kg, after 8 days of administration
  tumor growth: tumor growth was significantly suppressed
